Experimental data as given in paper PMC4841789, “Synthesis and pharmacological evaluation of mono-arylimidamides as antileishmanial agents” (Bioorganic & Medicinal Chemistry Letters, 2016).
Read-outs that look alike come from different tables or passages of the source.

Key:
[1] = test system: Intracellular L. donovani; experiment: Efficacy against intracellular L. donovani amastigotes; format: cell-based; conditions: Leishmania donovani; means ± standard errors of at least three independent experiments
Text: (§1) Methods employed for the evaluation of the efficacy of mono-AIA target compounds against intracellular L. amazonensis[14] and intracellular L. donovani[15] and for toxicity to murine J774 macrophages[16] have been described previously. […] For ease in illustrating the antileishmanial SAR of this series of compounds, the central phenyl ring, the linker, and the terminal phenyl ring are referred to as rings A, B, and C, respectively (Fig. 1).

[2] = test system: Intracellular L. amazonensis; experiment: Efficacy against intracellular L. amazonensis amastigotes; format: cell-based; conditions: Leishmania amazonensis
Text: as §1

J774 macrophages = experiment: Toxicity to murine J774 macrophages (host cell counterscreen); format: cell-based; conditions: for IC50: Mus musculus; for selectivity index for intracellular Leishmania compared to J774 murine macrophages: IC50 vs J774 macrophages/IC50 vs Leishmania
Text: For ease in illustrating the antileishmanial SAR of this series of compounds, the central phenyl ring, the linker, and the terminal phenyl ring are referred to as rings A, B, and C, respectively (Fig. 1).

healthy BALB/c mice = experiment: In vivo toxicity assessment in healthy BALB/c mice; conditions: i.p. 30 mg/kg/day for 5 days, dissolved in water
Procedure: (§2) Compounds 1b, 1d, and 1k were dissolved in water and administered to healthy BALB/c mice for assessment of their in vivo toxicity. […] Animals were infected with L. donovani LV82 promastigotes and then treated with different compounds one week post infection for five consecutive days. These mice were euthanized two weeks post infection and liver smear slides were prepared for the microscopic determination of parasitemia.

[3] = Plasma and tissue concentrations after a single oral dose; format: in vivo; conditions: mouse, mice; for concentration at 24 h: 24 h after single oral dose 100 μmol/kg (40 mg/kg); for concentration at 1 h: 1 h after single oral dose 100 μmol/kg (40 mg/kg)
Procedure: To confirm the exposure and accumulation of 1b in target organs after oral administration, plasma and tissue concentrations of this compound were determined at 1, 2 and 24 h after a single oral dose at 100 μmol/kg (or 40 mg/kg) in mice. Compound 1b accumulated in the target organs such as liver and spleen at higher concentrations (C1h = 12.6 and 4.7 μM, respectively) than in the plasma (C1h = 1.9 μM) (Fig. 3). At 24 h post dose, 1b concentrations decreased substantially to 0.14 μM in the plasma and 0.6–0.7 μM in the liver and spleen.
Figure 3 Concentration of 1b in liver ( [drawing 15] ), spleen ( [drawing 16] ), kidney ( [drawing 17] ), and plasma ( [drawing 18] ) after oral administration at a dose of 100 μmol/kg (or 40 mg/kg) to mice. Bars and error bars represent means and standard errors of triplicate determinations, respectively.

[4] = test system: intracellular L. amazonensis amastigotes; experiment: Combination study of 1b and posaconazole against intracellular L. amazonensis amastigotes; format: cell-based; conditions: Leishmania amazonensis; combination experiment, absence of posaconazole; read-out: IC50 of 1b alone
Text: Our efforts to explore the mechanism of antileishmanial action of the bis-AIAs led to the observation that DB766 is synergistic with posaconazole against Leishmania donovani in vitro[17]; other investigators reported in vitro antileishmanial synergy between posaconazole and the squalene synthase inhibitor E5700.[18] A combination study with 1b and posaconazole was thus performed against intracellular L. amazonensis amastigotes. […] Instead, the method described by Peters et al.[23] was employed to determine whether posaconazole enhances the potency of 1b. […] Although both assays involved incubating infected murine peritoneal macrophages with posaconazole for 72 h, de Macedo-Silva exposed peritoneal macrophages to L. amazonensis for a shorter time compared to our studies prior to removing extracellular parasites (2 h vs overnight). […] Thus, a likely explanation for the discrepancy between IC50 values for posaconazole against intracellular L. amazonensis in the two studies is the differences in assay conditions employed.
Figure 4 In vitro interactions between 1b and posaconazole against intracellular L. amazonensis. Results are presented as the IC50 of 1b alone and in different combinations. Bars and error bars show the mean and standard deviation of three independent experiments.

L. donovani LV82 = experiment: Murine model of visceral leishmaniasis (liver parasitemia); format: in vivo; conditions: L. donovani-infected mice; for suppression (inhibition) of liver parasitemia: i.p. 30 mg/kg/day for 5 days, vs untreated control
Procedure: as §2
Compounds were administered i.p. (A and B) or p.o. (C) once daily for 5 days to infected mice. Results are presented as the percentage inhibition of liver parasitemia. Bars and error bars show the mean and standard deviation, respectively (n = 4) ^*p < 0.01, compared to untreated control, ^#p < 0.05, compared to untreated control.

[5] = means ± standard errors of at least three independent experiments, values marked b: means ± range of two experiments, read-out: IC50 Intracellular L. amazonensis
[6] = murine J774 macrophages, means ± standard errors of at least three independent experiments, read-out: IC50 J774 macrophages

SMILES | IC50 [1] [nM] | IC50 [2, 5] [nM] | IC50 (J774 macrophages; [6]) [nM] | further results
COc1ccccc1-c1ccc(-c2ccc(NC(=N)c3ccccn3)cc2OC(C)C)o1 [Compound 1i] | 1300 ± 100 | 1400 ± 200 | 5300 ± 1000 | –
CC(C)Oc1cc(NC(=N)c2ccccn2)ccc1-c1ccc(-c2ccccc2)o1.CS(=O)(=O)O [Compound 1b, N-(3-isopropoxy-4-(5-phenylfuran-2-yl)phenyl)picolinimidamide methanesulfonate] | 310 ± 10 | 130 ± 30 | 13000 | in vivo tolerability (healthy BALB/c mice): well tolerated; concentration at 24 h ([3]; liver and spleen, read-out: concentration in the liver and spleen at 24 h post dose): 600 to 700 nM; concentration at 1 h ([3]; liver, read-out: liver concentration C1h): 12600 nM; concentration at 1 h ([3]; plasma, read-out: plasma concentration C1h): 1900 nM; concentration at 24 h ([3]; plasma, read-out: plasma concentration at 24 h post dose): 140 nM; concentration at 1 h ([3]; spleen, read-out: spleen concentration C1h): 4700 nM; IC50 [4]: 260 ± 50 nM; selectivity index for intracellular Leishmania compared to J774 murine macrophages (J774 macrophages): ≥ 25; suppression (inhibition) of liver parasitemia (L. donovani LV82): 37%; inhibition of liver parasitemia (L. donovani LV82; p.o. 50 mg/kg once daily for 5 days): 37%; inhibition of liver parasitemia (L. donovani LV82; p.o. 100 mg/kg/day for five days, vs control): 46%
CC(C)Oc1cc(NC(=N)c2ccccn2)ccc1-c1ccco1 [Compound 1a] | 2400 ± 300 | 2100 ± 200 | 22000 | –
CC[C@@H]([C@H](C)O)n1ncn(-c2ccc(N3CCN(c4ccc(OC[C@@H]5CO[C@@](Cn6cncn6)(c6ccc(F)cc6F)C5)cc4)CC3)cc2)c1=O [posaconazole, reference compound] | – | – | – | IC50 ([2]; Peritoneal macrophage, infected murine peritoneal macrophages, 72 h, low solubility at higher concentrations, read-out: IC50 against intracellular L. amazonensis): > 10000 nM
CC(C)Oc1cc(NC(=N)c2ccccn2)ccc1-c1ccc(-c2cccnc2)o1 [Compound 1e] | 1200 ± 100 | 900 ± 230 | > 50000 | –
CC(C)Oc1cc(NC(=N)c2ccccn2)ccc1-c1ccc(-c2ccco2)o1.Cl [Compound 1d] | 340 ± 50 | 250 ± 10 | 8500 ± 800 | in vivo tolerability (healthy BALB/c mice): well tolerated; selectivity index for intracellular Leishmania compared to J774 murine macrophages (J774 macrophages): ≥ 25; suppression (inhibition) of liver parasitemia (L. donovani LV82): 13%
COc1ccc(-n2cc(-c3ccc(NC(=N)c4ccccn4)cc3OC(C)C)nn2)cc1 [Compound 2] | 1600 ± 200 | 2900 ± 100 | 16000 | –
CC(C)Oc1cc(-c2ccc(-c3ccccc3)o2)ccc1NC(=N)c1ccccn1 [Compound 1j] | 1400 ± 300 | 1600 ± 300 | 13000 | –
CC(C)Oc1cc(NC(=N)c2ccccn2)ccc1-c1cnc(-c2ccccc2)o1 [Compound 3] | 1000 | 590 ± 60 | 24000 | –
CC(C)Oc1cc(NC(=N)c2ccccn2)ccc1-c1ccc(-c2ccc(F)cc2)o1 [Compound 1h] | 1100 ± 100 | 920 ± 190 | 8000 ± 100 | –
CC(C)Oc1cc(NC(=N)c2ccccn2)ccc1-c1ccc(-c2ccncc2)o1 [Compound 1f] | 2600 ± 100 | 2700 ± 200 | 22000 | –
N=C(Nc1ccc(-c2ccc(-c3ccccc3)o2)c(C(F)(F)F)c1)c1ccccn1 [Compound 1n] | 6100 ± 1400 | > 10000 | > 20000 | –
COc1cc(NC(=N)c2ccccn2)ccc1-c1ccc(-c2ccccc2)o1 [Compound 1m] | 1400 ± 300 | 3700 ± 1300 | 9000 ± 2000 | –
CS(=O)(=O)O.N=C(Nc1ccc(-c2ccc(-c3ccccc3)o2)c(OC2CCCC2)c1)c1ccccn1 [Compound 1k] | 170 ± 40 | 140 ± 10 | 13000 | in vivo tolerability (healthy BALB/c mice): well tolerated; selectivity index for intracellular Leishmania compared to J774 murine macrophages (J774 macrophages): ≥ 25; suppression (inhibition) of liver parasitemia (L. donovani LV82): 20%
CCCCCCCCCCCCCCCCOP(=O)([O-])OCC[N+](C)(C)C [miltefosine, reference compound] | – | – | – | inhibition of liver parasitemia (L. donovani LV82; i.p. 10 mg/kg/day for five days, 10 mg/kg/day): > 90%; inhibition of liver parasitemia (L. donovani LV82; i.p. 10 mg/kg/day for five days, listed as Milt, 10 mg/kg/day): 99%; inhibition of liver parasitemia (L. donovani LV82; i.p. 10 mg/kg/day for five days, listed as Miltefosine, 10 mg/kg/day): 98%; inhibition of liver parasitemia (L. donovani LV82; p.o. 10 mg/kg/day for five days, 10 mg/kg/day): > 90%; inhibition of liver parasitemia (L. donovani LV82; p.o. 10 mg/kg/day for five days, listed as Milt, 10 mg/kg/day): 96%
COc1cc([C@@H]2c3cc4c(cc3[C@H](O)[C@H]3COC(=O)[C@H]23)OCO4)cc(OC)c1OC [podophyllotoxin, reference compound] | – | – | – | IC50 (J774 macrophages; J774, read-out: IC50 J774 macrophages): 24 ± 5 nM
COc1ccc(-c2ccc(-c3ccc(NC(=N)c4ccccn4)cc3OC(C)C)o2)cc1 [Compound 1g] | 900 ± 150 | 820 ± 310 | 6700 ± 900 | –
CC(C)Oc1cc(NC(=N)c2ncccn2)ccc1-c1ccc(-c2ccccc2)o1 [Compound 1p] | 440 ± 60 | 650 ± 160 | 12000 | –
CC(C)Oc1cc(NC(=N)c2ccccn2)ccc1-c1ccc(-c2cncnc2)o1 [Compound 1c] | 2100 ± 400 | 1100 ± 300 | > 20000 | –
C[C@@H]1[C@H](O)[C@@H](C)/C=C/C=C/C=C/C=C/C=C/C=C/C=C/[C@H](O[C@@H]2O[C@H](C)[C@@H](O)[C@H](N)[C@@H]2O)C[C@@H]2O[C@](O)(C[C@@H](O)C[C@@H](O)[C@H](O)CC[C@@H](O)C[C@@H](O)CC(=O)O[C@H]1C)C[C@H](O)[C@H]2C(=O)O [amphotericin B, reference compound] | 40 ± 3 | 120 ± 10 | – | –
CC(C)Oc1cc(NC(=N)c2ccccn2)ccc1-c1ccc(-c2ccccc2)s1 [Compound 1o] | 2200 ± 500 | 2300 ± 300 | 6900 ± 400 | –
CCOc1cc(NC(=N)c2ccccn2)ccc1-c1ccc(-c2ccccc2)o1 [Compound 1l] | 850 ± 170 | 980 ± 70 | 6600 ± 600 | –
